“Also recorded” adds a separate entry of the source.
Tests used:
[1] = cited from earlier work; for serum cholesterol levels: mice fed a low cholesterol diet; for elevated serum cholesterol levels: mice, induced by high cholesterol diets
[2] = tested on: LNCaP cells transfected with HB-EGF; assay: SCID mice transplanted subcutaneously with LNCaP cells transfected with HB-EGF, high cholesterol diet; type: in vivo; conditions: for tumor growth and progression vs untreated controls: 10 mg/kg body weight in diet, started 2 weeks after implantation, 6-12 weeks of treatment, intact and castrated animals; for tumor volumes: progression and growth of the implanted tumors vs untreated controls: 30 mg/kg of body weight, started 2 weeks after tumor implantation, after 12 weeks, high cholesterol diet
From the text: Prostate cancer is a leading cause of mortality in males in North America with between 30,000 to 40,000 deaths per year in the United States. While chemotherapy has not been very efficacious in the treatment of prostate cancer, an alternative approach has been to target prostate cancer cell survival pathways, particularly the PI3 kinase/Akt/PTEN signaling axis, which has been identified as an important cell survival mechanism in PCa and other cancers. Recently it has been determined that membrane cholesterol is an important component of a mechanism that transfers survival signals from the cell exterior to the Akt1 serine-threonine kinase. It has also been shown recently that elevated serum cholesterol accelerates the growth, lowers the extent of cellular apotosis, and increases the level of Akt activation in prostate tumors within a murine prostate cancer model. Findings indicate that cholesterol plays a critical role in the ability of prostate cancer cells to resist apoptotic stimuli. The role of cholesterol in prostate cancer cell survival is so critical that drugs that bind cholesterol (polyene macrolides), extract cholesterol from membranes (cyclodextrin) or block cholesterol synthesis (statins) all alter essential membranes (lipid rafts) and reduce their capacity to regulate cell signaling. Cholesterol plays a crucial role in specifically regulating prostate cancer growth and survival. In these studies a unique prostate murine model system is used. This model features the human prostate adenocarcinoma cell line, LNCaP transfected with HB-EGF. LNCAP cells resemble typical prostate tumor cells in their general morphology, production of PSA and PTEN null status. Stable transfection with HB-EGF, a physiologically relevant EGFR ligand that originates in the prostatic stroma, permits LNCaP cells to form tumors in vivo in an androgen—independent manner. Subcutaneous implantation of these LNCaP cells into 4 quadrants of SCID mice results in rapid tumor growth in intact and castrated mice over an eight week period. […] Mice placed on a high cholesterol diet 4 weeks prior to tumor implantation are started on ezetimibe and SCH 48461 @ 30 mg/kg of body weight 2 weeks after tumor implantation.
Subcutaneous implantations of LNCaP cells into 4 quadrants of SCID mice (2×10^6 cells in 150 ul Matrigel per injection site) results in rapid tumor growth in intact and castrated hosts on a high cholesterol diet over an 8 week period. Two weeks after tumor cell implantation, the animals are given ezetimibe in their diet at 10 mg/kg body weight.

[3] = tested on: benign prostatic hyperplasia; conditions: controlled double blind study; cited from earlier work
[4] = tested on: BIO 87.20 male Syrian hamster; assay: Ezetimibe treatment of BIO 87.20 male Syrian hamsters that develop spontaneous cystic prostatic hypertrophy and other tumors; type: in vivo
From the text: The BIO 87.20 male Syrian hamster is a well-known inbred line that develops, spontaneously, an age-dependent and genetic related cystic prostatic hypertrophy and is recognized in the art as an excellent model for human prostate disease. See, e.g., Homburger et al., 1970, Proc. Soc. Exptl. Biol. Med., 134:284-286; Homburger, 1972, Health Lab Sci., 9:103-111; Wang et al., 1976, Invest. Urol., 14:66-71. The BIO 87.20 strain of hamster develops multiple tumors after 12 months of age.
The stromal hyperplasia and changes in the epithelial cells are also observed upon microscopic examination. […] The BIO 87.20 and BIO 1.5 strains of male Syrian hamster are employed in the ezetimibe studies presented herein. […] Schaffner et al., Lipids 16:835-840 (1981). The defect in cholesterol synthesis and the development of cystic prostatic hypertrophy in the BIO 87.20 male hamster is related.
16 BIO 1.5 and 48 BIO 87.20 male Syrian hamsters are obtained from Bio Breeders, Inc. Boston, Mass. Among these animals, 8 BIO 1.5 and 24 BIO 87.20 hamsters are 6 months of age, while the remainder, consisting of […] and 24 BIO 87.20 hamsters, are 12 months of age. The animals are housed in individual cages. All animals are given water ad libitum and are housed under automatic regime of 12 hours artificial light and 12 hours darkness. Food consumption is be monitored to ensure equivalent intake in all animals. The drug, ezetimibe, is powdered and mixed into ground PURINA® hamster chow. Concentrations of ezetimibe, in the food, is adjusted according to quantity of food intake per hamster per day and expressed as average μg of ezetimibe per kg body weight per day.
The animals are divided into 8 experimental groups containing 8 animals each. The groups may be characterized as follows:
Control BIO 1.5 and control and treated BIO 87.20 male Syrian hamsters, both 6 and 12 months of age, are used as follows. In the treated group of BIO 87.20 male Syrian hamsters, ezetimibe is administered as a powder in the diet. Treatment with doses of ezetimibe of 100 and 1000 micrograms per kilogram body weight of the BIO 87.20 animals is continued for 6 months. […] After 6 months of treatment the animals are sacrificed and the prostate glands excised, weighed and preserved for histopathological examination.

[5] = tested on: tumor initiation and progression; conditions: long-term rat studies; cited from earlier work

Molecule: O=C1N(c2ccc(F)cc2)[C@H](c2ccc(O)cc2)C12CCC(O)(c1ccc(Cl)cc1)CC2 (single isomer, unassigned; (+)) [SCH 58053, (+)-7-(4-chlorophenyl)-2-(4-flourophenyl)-7-hydroxy-3R-(4-hydroxyphenyl)-2-azaspiro[3,5]nonan-1-one]
- serum cholesterol levels [1]: do not generally affect serum cholesterol levels
- elevated serum cholesterol levels [1]: do lower elevated serum cholesterol levels

Molecule: COc1ccc([C@@H]2[C@@H](CCCc3ccccc3)C(=O)N2c2ccc(OC)cc2)cc1 [SCH 48461]
- tumor growth and progression vs untreated controls [2]: significant inhibition of tumor growth and progression
- tumor volumes: progression and growth of the implanted tumors vs untreated controls [2]: significantly inhibits the progression and growth of the implanted tumors
- serum cholesterol levels [1]: do not generally affect serum cholesterol levels
- elevated serum cholesterol levels [1]: do lower elevated serum cholesterol levels

Molecule: CC[C@H](CC[C@@H](C)[C@H]1CC[C@H]2[C@@H]3CC=C4C[C@@H](O)CC[C@]4(C)[C@H]3CC[C@]12C)C(C)C [beta-sitosterol]
- effectiveness in the treatment of benign prostatic hyperplasia [3]: effective

Molecule: O=C1[C@H](CC[C@H](O)c2ccc(F)cc2)[C@@H](c2ccc(O)cc2)N1c1ccc(F)cc1 [ezetimibe, 1-(4-fluorophenyl)-(3R)-[3-(4-fluorophenyl)-(3S)-hydroxypropyl]-(45)-(4-hydroxyphenyl)-2-azetidinone]
- tumor growth and progression vs untreated controls [2]: marked inhibition of tumor growth and progression
- tumor volumes: progression and growth of the implanted tumors vs untreated controls [2]: significantly inhibits the progression and growth of the implanted tumors
- effect of higher dose on inhibition and reversal of the prostate enlargement ([4]; 1000 μg/kg body weight): greater effect on the inhibition and reversal of the prostate enlargement
- inhibitory effect on size increase of the prostate gland, higher vs lower dose ([4]; 1000 μg/kg body weight, beginning at 6 months of age, 6 months): greater inhibitory effect on size increase of the prostate gland
- level of effect on ventral prostate weights, higher vs lower dose ([4]; 1000 vs 100 μg/kg body weight, beginning at 12 months of age, 6 months): significantly greater at the higher dosage
- tumors at the end of the experiment vs BIO 87.20 control animals of the same age ([4]; as referred to Example II): no tumors
- cystic prostatic hypertrophy on histopathological examination vs untreated controls ([4]; beginning at 6 months of age, after 6 months of treatment): marked reduction in the cystic prostatic hypertrophy
- established prostatic enlargement (reversal) ([4]; beginning at 12 months of age, enlargement already present): reverses the prostatic enlargement
- miscellaneous tumors other than that of the prostate gland ([4]; oral 1000 μg/kg body weight, beginning at 12 months of age, 6 months): very few tumors are observed
- development of cystic prostatic hypertrophy ([4]; oral route): inhibits the development of cystic prostatic hypertrophy
- other cholesterol-associated tumor formation ([4]; summary statement, dose not given): inhibits other cholesterol-associated tumor formation
- histology of the prostates on histopathological examination ([4]; treated BIO 87.20 compared with BIO 1.5 prostate sections): more normal histology
- prostatic enlargement / prostate gland volume vs untreated control BIO 87.20 ([4]; treatment beginning at 6 months of age, 6 months, 100 and 1000 μg/kg body weight in diet): inhibits prostatic enlargement; also recorded: marked inhibitory effect on the prostate gland volume
- prostatic mass or volume / excised ventral prostate weights vs untreated BIO 87.20 controls ([4]; treatment beginning at 12 months of age, 6 months, 100 and 1000 μg/kg body weight): reduces the prostatic mass or volume; also recorded: markedly reduced
- serum cholesterol levels [1]: do not generally affect serum cholesterol levels
- elevated serum cholesterol levels [1]: do lower elevated serum cholesterol levels

Molecule: candicidin
- tumor initiation and progression vs untreated controls [5]: inhibit tumor initiation and progression
